Laboratory results from patent publication US20250230193A1, “CYCLIC COMPOUND HAVING SELECTIVE KRAS INHIBITORY EFFECT ON HRAS AND NRAS” (CHUGAI SEIYAKU KABUSHIKI KAISHA, priority 2022, published 2025).

Assays:
[1] = target: GDP-bound NRAS wild-type protein (Homo sapiens, UniProt P01111); assay: Binding to NRAS by surface plasmon resonance (SPR), Single Cycle Kinetics; settings: KD ratio, GDP-bound NRAS wild-type vs GDP-bound KRAS wild-type, SPR
[2] = target: GDP-bound HRAS wild-type protein (Homo sapiens, UniProt P01112); assay: Binding to HRAS by surface plasmon resonance (SPR), Single Cycle Kinetics; settings: KD ratio, GDP-bound HRAS wild-type vs GDP-bound KRAS wild-type, SPR
Sequence of GDP-bound HRAS wild-type protein (P01112 whole entry): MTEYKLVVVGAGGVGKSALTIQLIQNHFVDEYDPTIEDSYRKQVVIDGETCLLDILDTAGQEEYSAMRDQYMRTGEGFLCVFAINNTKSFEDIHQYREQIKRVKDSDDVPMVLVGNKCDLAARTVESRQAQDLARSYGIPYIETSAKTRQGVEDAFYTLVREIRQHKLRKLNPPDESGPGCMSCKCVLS

Sequence of GDP-bound NRAS wild-type protein (P01111 whole entry): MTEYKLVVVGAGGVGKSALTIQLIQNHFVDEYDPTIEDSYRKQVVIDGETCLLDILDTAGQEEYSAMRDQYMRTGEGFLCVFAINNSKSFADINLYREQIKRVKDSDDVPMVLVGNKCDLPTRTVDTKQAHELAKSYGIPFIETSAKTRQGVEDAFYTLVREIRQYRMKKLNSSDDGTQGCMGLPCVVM

Row | SMILES | NRAS/KRAS (ratio of KD value for NRAS to KD value for KRAS) [1] | HRAS/KRAS (ratio of KD value for HRAS to KD value for KRAS) [2]
1 | CCO[C@@H]1C[C@H]2C(=O)N(C)C3(CCC3)C(=O)N(C)[C@@H](C3CCCC3)C(=O)N(C)[C@H](C(=O)N(C)C)CC(=O)N(C)[C@@H](CC3CC3)C(=O)N[C@@H]([C@@H](C)CC)C(=O)N3CCC[C@H]3C(=O)N(C)[C@H]3C/C=C\CCN(C3=O)[C@@H](Cc3ccc(C)cc3)C(=O)N(C)CC(=O)N[C@@H](CCc3cc(F)c(C(F)(F)F)c(F)c3)C(=O)N2C1 [PP1797] | A (a compound having 10 or more and less than 20 is denoted as A) | A (a compound having 10 or more and less than 20 is denoted as A)
2 | CC[C@H](C)[C@@H]1NC(=O)[C@H](CC2CC2)N(C)C(=O)C[C@@H](C(=O)N(C)C)N(C)C(=O)[C@H](C2CCCC2)N(C)C(=O)C2(CCC2)N(C)C(=O)[C@@H]2CCCN2C(=O)[C@H](CCc2cc(F)c(C(F)(F)F)c(F)c2)NC(=O)CN(C)C(=O)[C@H](Cc2ccc(C)cc2)N2CC/C=C\C[C@@H](C2=O)N(C)C(=O)[C@@H]2CCCN2C1=O [PP1798] | A (a compound having 10 or more and less than 20 is denoted as A) | B (a compound having 3 or more and less than 10 is denoted as B)
3 | CCC[C@H]1C(=O)N[C@@H]([C@@H](C)CC)C(=O)N(C)CC(=O)N(C)[C@H]2C/C=C\CCN(C2=O)[C@@H](Cc2ccc(C)cc2)C(=O)N(C)CC(=O)N[C@@H](CCc2cc(F)c(C(F)(F)F)c(F)c2)C(=O)N2C[C@H](C)C[C@H]2C(=O)N(C)C2(CCC2)C(=O)N(C)[C@@H](C2CCCC2)C(=O)N(C)[C@H](C(=O)N(C)C)CC(=O)N1C [PP1799] | B (a compound having 3 or more and less than 10 is denoted as B) | B (a compound having 3 or more and less than 10 is denoted as B)
4 | CC[C@H](C)[C@@H]1NC(=O)[C@H](CC2CC2)N(C)C(=O)C[C@@H](C(=O)N(C)C)N(C)C(=O)[C@H](C2CCCC2)N(C)C(=O)C2(CCC2)N(C)C(=O)[C@@H]2C[C@@H](C)CN2C(=O)[C@H](CCc2cc(F)c(C(F)(F)F)c(F)c2)NC(=O)CN(C)C(=O)[C@H](Cc2ccc(C)cc2)N2CC/C=C\C[C@@H](C2=O)N(C)C(=O)CN(C)C1=O [PP1800] | A (a compound having 10 or more and less than 20 is denoted as A) | A (a compound having 10 or more and less than 20 is denoted as A)
5 | CC[C@H](C)[C@@H]1NC(=O)[C@H](CC2CC2)N(C)C(=O)C[C@@H](C(=O)N(C)C)N(C)C(=O)[C@H](C2CCCC2)N(C)C(=O)C2(CCC2)N(C)C(=O)[C@@H]2C[C@@H](C)CN2C(=O)[C@H](CCc2cc(F)c(C(F)(F)F)c(F)c2)NC(=O)CN(C)C(=O)[C@H](Cc2ccc(C)cc2)N2CC/C=C\C[C@@H](C2=O)N(C)C(=O)[C@@H]2CCCN2C1=O [PP1801] | A (a compound having 10 or more and less than 20 is denoted as A) | B (a compound having 3 or more and less than 10 is denoted as B)
6 | CC[C@H](C)[C@@H]1NC(=O)[C@H](CC2CCC2)N(C)C(=O)C[C@@H](C(=O)N(C)C)N(C)C(=O)[C@H](C2CCCC2)N(C)C(=O)C2(CCC2)N(C)C(=O)[C@@H]2CCCN2C(=O)[C@H](CCc2cc(F)c(C(F)(F)F)c(F)c2)NC(=O)CN(C)C(=O)[C@H](Cc2ccc(C)cc2)N2CC/C=C\C[C@@H](C2=O)N(C)C(=O)CN(C)C1=O [PP1802] | A (a compound having 10 or more and less than 20 is denoted as A) | B (a compound having 3 or more and less than 10 is denoted as B)
7 | CC[C@H](C)[C@@H]1NC(=O)[C@H](CC2CCC2)N(C)C(=O)C[C@@H](C(=O)N(C)C)N(C)C(=O)[C@H](C2CCCC2)N(C)C(=O)C2(CCC2)N(C)C(=O)[C@@H]2C[C@@H](C)CN2C(=O)[C@H](CCc2cc(F)c(C(F)(F)F)c(F)c2)NC(=O)CN(C)C(=O)[C@H](Cc2ccc(C)cc2)N2CC/C=C\C[C@@H](C2=O)N(C)C(=O)CN(C)C1=O [PP1803] | A (a compound having 10 or more and less than 20 is denoted as A) | B (a compound having 3 or more and less than 10 is denoted as B)
8 | CCO[C@@H]1C[C@H]2C(=O)N(C)C3(CCCC3)C(=O)N(C)[C@@H](C3CCCC3)C(=O)N(C)[C@H](C(=O)N(C)C)CC(=O)N(C)[C@@H](CC)C(=O)N[C@@H]([C@@H](C)CC)C(=O)N(C)CC(=O)N(C)[C@H]3C/C=C\CCN(C3=O)[C@@H](Cc3ccc(C(F)(F)F)cc3)C(=O)N(C)CC(=O)N[C@@H](CCc3cc(F)c(C(F)(F)F)c(F)c3)C(=O)N2C1 [PP1804] | A (a compound having 10 or more and less than 20 is denoted as A) | A (a compound having 10 or more and less than 20 is denoted as A)
9 | CC[C@H](C)[C@@H]1NC(=O)[C@H](CC)N(C)C(=O)C[C@@H](C(=O)N(C)C)N(C)C(=O)[C@H](C2CCCC2)N(C)C(=O)C2(CCCC2)N(C)C(=O)[C@@H]2CCCN2C(=O)[C@H](CCc2cc(F)c(C(F)(F)F)c(F)c2)NC(=O)CN(C)C(=O)[C@H](Cc2ccc(C(F)(F)F)cc2)N2CC/C=C\C[C@@H](C2=O)N(C)C(=O)CN(C)C1=O [PP1805] | A (a compound having 10 or more and less than 20 is denoted as A) | A (a compound having 10 or more and less than 20 is denoted as A)
10 | CCO[C@@H]1C[C@H]2C(=O)N(C)C3(CCCC3)C(=O)N(C)[C@@H](C3CCCC3)C(=O)N(C)[C@H](C(=O)N(C)C)CC(=O)N(C)[C@@H](CC)C(=O)N[C@@H]([C@@H](C)CC)C(=O)N(C)CC(=O)N(C)[C@H]3C/C=C\CCN(C3=O)[C@@H](Cc3ccc(C)cc3)C(=O)N(C)CC(=O)N[C@@H](CCc3cc(F)c(C(F)(F)F)c(F)c3)C(=O)N2C1 [PP1806] | A (a compound having 10 or more and less than 20 is denoted as A) | B (a compound having 3 or more and less than 10 is denoted as B)
11 | CC[C@H](C)[C@@H]1NC(=O)[C@H](CC)N(C)C(=O)C[C@@H](C(=O)N(C)C)N(C)C(=O)[C@H](C2CCCC2)N(C)C(=O)C2(CCCC2)N(C)C(=O)[C@@H]2CCCN2C(=O)[C@H](CCc2cc(F)c(C(F)(F)F)c(F)c2)NC(=O)CN(C)C(=O)[C@H](Cc2ccc(C)cc2)N2CC/C=C\C[C@@H](C2=O)N(C)C(=O)CN(C)C1=O [PP1807] | A (a compound having 10 or more and less than 20 is denoted as A) | B (a compound having 3 or more and less than 10 is denoted as B)
12 | CCO[C@@H]1C[C@H]2C(=O)N(C)C3(CCCC3)C(=O)N(C)[C@@H](C3CCCC3)C(=O)N(C)[C@H](C(=O)N(C)C)CC(=O)N(C)[C@@H](C3CC3)C(=O)N[C@@H]([C@@H](C)CC)C(=O)N(C)CC(=O)N(C)[C@H]3C/C=C\CCN(C3=O)[C@@H](Cc3ccc(C)cc3)C(=O)N(C)CC(=O)N[C@@H](CCc3cc(F)c(C(F)(F)F)c(F)c3)C(=O)N2C1 [PP1808] | A (a compound having 10 or more and less than 20 is denoted as A) | B (a compound having 3 or more and less than 10 is denoted as B)
13 | CCO[C@@H]1C[C@H]2C(=O)N(C)C3(CCCC3)C(=O)N(C)[C@@H](C3CCCC3)C(=O)N(C)[C@H](C(=O)N(C)C)CC(=O)N(C)[C@@H](CC)C(=O)N[C@@H]([C@@H](C)CC)C(=O)N3CCC[C@H]3C(=O)N(C)[C@H]3C/C=C\CCN(C3=O)[C@@H](Cc3ccc(C)cc3)C(=O)N(C)CC(=O)N[C@@H](CCc3cc(F)c(C(F)(F)F)c(F)c3)C(=O)N2C1 [PP1810] | A (a compound having 10 or more and less than 20 is denoted as A) | B (a compound having 3 or more and less than 10 is denoted as B)
14 | CC[C@H](C)[C@@H]1NC(=O)[C@H](CC)N(C)C(=O)C[C@@H](C(=O)N(C)C)N(C)C(=O)[C@H](C2CCCC2)N(C)C(=O)C2(CCCC2)N(C)C(=O)[C@@H]2CCCN2C(=O)[C@H](CCc2cc(F)c(C(F)(F)F)c(F)c2)NC(=O)CN(C)C(=O)[C@H](Cc2ccc(C)cc2)N2CC/C=C\C[C@@H](C2=O)N(C)C(=O)[C@@H]2CCCN2C1=O [PP1811] | A (a compound having 10 or more and less than 20 is denoted as A) | B (a compound having 3 or more and less than 10 is denoted as B)
15 | CC[C@H](C)[C@@H]1NC(=O)[C@H](CC)N(C)C(=O)C[C@@H](C(=O)N(C)C)N(C)C(=O)[C@H](C2CCCC2)N(C)C(=O)C2(CCCC2)N(C)C(=O)[C@@H]2C[C@@H](C)CN2C(=O)[C@H](CCc2cc(F)c(C(F)(F)F)c(F)c2)NC(=O)CN(C)C(=O)[C@H](Cc2ccc(C)cc2)N2CC/C=C\C[C@@H](C2=O)N(C)C(=O)CN(C)C1=O [PP1812] | A (a compound having 10 or more and less than 20 is denoted as A) | A (a compound having 10 or more and less than 20 is denoted as A)
16 | CC[C@H](C)[C@@H]1NC(=O)[C@H](C2CC2)N(C)C(=O)C[C@@H](C(=O)N(C)C)N(C)C(=O)[C@H](C2CCCC2)N(C)C(=O)C2(CCCC2)N(C)C(=O)[C@@H]2C[C@@H](C)CN2C(=O)[C@H](CCc2cc(F)c(C(F)(F)F)c(F)c2)NC(=O)CN(C)C(=O)[C@H](Cc2ccc(C)cc2)N2CC/C=C\C[C@@H](C2=O)N(C)C(=O)CN(C)C1=O [PP1813] | A (a compound having 10 or more and less than 20 is denoted as A) | B (a compound having 3 or more and less than 10 is denoted as B)
